From patent US10532053B2, “Histone deacetylase inhibitor, and preparation method and use thereof” (GUANGDONG ZHONGSHENG PHARMACEUTICAL CO., LTD, priority 2015, dated 2020)
Like-named read-outs stand apart in the source and are kept apart here.

Experiments:
[1] = system: Multiple myeloma RPMI8226; experiment: Cell proliferative activity (MTT / cck-8); format: cell-based; details: Homo sapiens, RPMI-8226, read-out: Half-Inhibitory Concentration IC50 RPMI8226
Outline: (§1)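 Log-phase tumour cells were seeded at 2000-3000 cells/well, with adherent lines allowed to attach before treatment. Proliferation was read by MTT for solid-tumour lines and by CCK-8 for haematologic lines such as Ramos.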

[2] = system: Human lung cancer cell H460; experiment: Cell proliferative activity (MTT / cck-8); format: cell-based
Outline: as §1

Leukemia K562 = experiment: Cell proliferative activity (MTT / cck-8); format: cell-based; details: Homo sapiens, read-out: Half-Inhibitory Concentration IC50 K562
Outline: as §1

Multiple myeloma U266 = experiment: Cell proliferative activity (MTT / cck-8); format: cell-based; details: Homo sapiens, U-266, read-out: Half-Inhibitory Concentration IC50 U266
Outline: as §1

Ramos cells = experiment: Therapeutic effect on the B-cell lymphoma Ramos subcutaneous tumor model; format: in vivo, NOD/SCID mice; details: 6 times; for tumor inhibitory rate: vs solvent group
HDAC10 = HDAC10 (Homo sapiens, UniProt Q969S8); details: read-out: IC50 HDAC10; Table 4, Class IIb
Method: (§2) The HDAC inhibitory activity was determined by fluorescence-coupled acetylated peptide substrate assay (Lys-Ac-AMC). HDAC1 protein was purchased from BPS Bioscience, and the reaction buffer system was a modified tris(hydroxymethyl)aminomethane buffer (pH 7.0). The small molecule compounds of the present invention were prepared by being dissolved in 100% DMSO. HDAC was prepared in a buffer at a certain concentration as an enzyme solution; trypsin and fluorescent group 4-amino-7-coumarin coupled-acetylated peptide (Ac-peptide) substrate were prepared in a buffer at a certain concentration as a substrate solution. The compounds were added into the reaction wells in a 384-well plate at a designed concentration of 10 μM, 1 μM, 0.5 μM, 0.1 μM, 0.05 μM, 0.01 μM, 0.005 μM, 0.001 μM, and 0.00005 μM, respectively, and then 15 μl of the HDAC solution was added into the reaction wells (15 μl of blank buffer to the control well). […] The results were analyzed by GraphPad Prism software and IC50 values were calculated according to the formula: Y=Background Data+(Top Data−Background Data)/(1+10^((Log IC50−X) a curve slope)), where Y: the inhibition rate (%) and X: the concentration of the compound.

Lung cancer A549 = experiment: Cell proliferative activity (MTT / cck-8); format: cell-based; details: Homo sapiens, read-out: Half-Inhibitory Concentration IC50 A549
HBL-1 cells = experiment: Therapeutic effect on the B-cell lymphoma HBL-1 subcutaneous tumor model; format: in vivo, NOD/SCID mice; details: HBL-1 model, 9 times, vs solvent group
HDAC3 = HDAC3 (Homo sapiens, UniProt O15379); details: read-out: IC50 HDAC3; Table 4, Class I
Method: The HDAC inhibitory activity was determined by fluorescence-coupled acetylated peptide substrate assay (Lys-Ac-AMC). […] The small molecule compounds of the present invention were prepared by being dissolved in 100% DMSO. HDAC was prepared in a buffer at a certain concentration as an enzyme solution; trypsin and fluorescent group 4-amino-7-coumarin coupled-acetylated peptide (Ac-peptide) substrate were prepared in a buffer at a certain concentration as a substrate solution. The compounds were added into the reaction wells in a 384-well plate at a designed concentration of 10 μM, 1 μM, 0.5 μM, 0.1 μM, 0.05 μM, 0.01 μM, 0.005 μM, 0.001 μM, and 0.00005 μM, respectively, and then 15 μl of the HDAC solution was added into the reaction wells (15 μl of blank buffer to the control well). […] The results were analyzed by GraphPad Prism software and IC50 values were calculated according to the formula: Y=Background Data+(Top Data−Background Data)/(1+10^((Log IC50−X) a curve slope)), where Y: the inhibition rate (%) and X: the concentration of the compound.

Colon cancer HT29 = experiment: Cell proliferative activity (MTT / cck-8); format: cell-based; details: Homo sapiens, HT-29, read-out: Half-Inhibitory Concentration IC50 HT29
Breast cancer SKBR3 = experiment: Cell proliferative activity (MTT / cck-8); format: cell-based; details: Homo sapiens, SK-BR-3, read-out: Half-Inhibitory Concentration IC50 SKBR3
HDAC2 = HDAC2 (Homo sapiens, UniProt Q92769); details: read-out: IC50 HDAC2
Method: as §2

HDAC8 = molecular target: T1, HDAC8 (Homo sapiens, UniProt Q9BY41); experiment: HDAC inhibitory activity, fluorescence-coupled acetylated peptide substrate assay
T1 sequence (Q9BY41 1-377): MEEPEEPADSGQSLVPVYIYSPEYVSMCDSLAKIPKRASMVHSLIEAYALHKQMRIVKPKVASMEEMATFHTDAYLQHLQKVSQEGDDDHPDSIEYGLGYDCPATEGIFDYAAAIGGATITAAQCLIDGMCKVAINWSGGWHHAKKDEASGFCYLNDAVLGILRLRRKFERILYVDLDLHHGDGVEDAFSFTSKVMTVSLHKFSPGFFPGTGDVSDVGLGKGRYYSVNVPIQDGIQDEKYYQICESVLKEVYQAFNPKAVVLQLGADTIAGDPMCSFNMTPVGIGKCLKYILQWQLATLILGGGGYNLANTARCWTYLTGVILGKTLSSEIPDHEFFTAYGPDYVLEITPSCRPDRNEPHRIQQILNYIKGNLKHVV
Method: as §2

[3] = system: acetylation level of HDAC substrate (Ac-α-tubulin, Ac-H3); experiment: Western blot assay for detecting the level of acetylated proteins; format: cell-based; details: HCT116 cells (FIG. 3) or MV4-11 cells (FIG. 4)
Method: The compounds or the positive control compound were added into each group of cells already adherent to the walls (2×10^6 HCT116 cells or 5×10^6 MV4-11 cells) at a designed concentration. After treatment for 4 hours, trypsin was added for digestion, followed by collecting the cells. After washing with cold PBS twice, the cells were lysed by adding RIPA lysis solution (which was purchased from Beyotime, Art. No.: P0013B, adding 1 mM PMSF before use), allowing for lysis on ice for 30 minutes while vortexing at intervals. The lysate was subjected to ultrasonic treatment on an ice bath (ultrasonicated for 3 seconds and repeated 5 times for each group at an interval of 10 seconds). The supernatant was collected by centrifugation at 12,000 g for 20 min at 4° C. and then mixed the SDS-PAGE loading buffer (purchased from Beyotime, Art. No.: P0015F). The mixture was heated in boiling water for 5 minutes to obtain a protein sample. The protein concentration of the sample was quantified by BCA method. 20 […] total protein from each group was subjected to 15% SDS-PAGE electrophoresis, and 5μl of a pre-stained protein marker (purchased from Thermo, Art. No.: 26616) was loaded to an additional selective lane in order to compare protein molecular weights as well as to detect the transmembrane result. When the bromophenol blue bands ran close to the bottom of the gel, the electrophoresis was terminated and the proteins on the gel were transferred to a PVDF membrane at a pore size of 0.22 μm. After 1.5 hours of transmembrane at a constant current of 200 mA, the PVDF membrane was removed and blocked in 5% skimmed milk for 1 hour. After completion of blocking, the membrane was incubated with the primary antibody (Ac-H3 antibody was purchased from Santa Cruz, Art. No.: sc-56616; Ac-α-tubulin antibody was purchased from Santa Cruz, Art. No.: sc-23950) overnight at 4° C. and then washed with TBS/T for 10 minutes for 3 times. The membrane was incubated with the horseradish peroxidase-coupled secondary antibody at room temperature for 1 hour, and then washed with TBS/T for 10 minutes for 3 times. After washing with TBS for 5 minutes, the membrane was exposed and developed by using a film in the darkroom. The detected GAPDH protein was an internal reference protein (GAPDH antibody was purchased from ZSGB-Bio, Art. No.: TA-08).

MV4-11 cells = experiment: Therapeutic effect on the MV4-11 acute myeloid leukemia model; format: in vivo, NOD/SCID mice; details: MV4-11 model, 50 mg/kg intravenously once every other day, 12 times
[4] = 10 mg/kg intragastrically once every other day
[5] = 20 mg/kg intragastrically once every other day
[6] = 40 mg/kg intragastrically once every other day
[7] = 80 mg/kg intragastrically once every other day

Chain of HDAC10 (Q969S8 whole entry): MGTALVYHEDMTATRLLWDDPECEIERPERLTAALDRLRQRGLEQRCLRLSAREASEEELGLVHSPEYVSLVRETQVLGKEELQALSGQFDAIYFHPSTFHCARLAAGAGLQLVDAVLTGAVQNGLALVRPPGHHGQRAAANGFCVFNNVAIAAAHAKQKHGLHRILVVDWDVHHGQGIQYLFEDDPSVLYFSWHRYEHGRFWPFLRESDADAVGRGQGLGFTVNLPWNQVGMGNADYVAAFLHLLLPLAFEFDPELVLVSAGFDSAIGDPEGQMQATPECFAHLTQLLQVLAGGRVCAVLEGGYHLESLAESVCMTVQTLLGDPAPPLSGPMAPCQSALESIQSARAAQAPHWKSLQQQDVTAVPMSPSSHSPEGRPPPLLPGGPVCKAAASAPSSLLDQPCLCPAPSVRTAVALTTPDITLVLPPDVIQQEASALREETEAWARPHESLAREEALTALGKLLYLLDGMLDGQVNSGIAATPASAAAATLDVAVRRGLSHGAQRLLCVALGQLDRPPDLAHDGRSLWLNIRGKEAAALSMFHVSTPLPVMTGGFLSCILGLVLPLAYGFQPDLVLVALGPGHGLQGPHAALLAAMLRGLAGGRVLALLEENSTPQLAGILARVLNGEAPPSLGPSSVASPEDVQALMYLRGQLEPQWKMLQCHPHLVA
Chain of HDAC2 (Q92769 whole entry): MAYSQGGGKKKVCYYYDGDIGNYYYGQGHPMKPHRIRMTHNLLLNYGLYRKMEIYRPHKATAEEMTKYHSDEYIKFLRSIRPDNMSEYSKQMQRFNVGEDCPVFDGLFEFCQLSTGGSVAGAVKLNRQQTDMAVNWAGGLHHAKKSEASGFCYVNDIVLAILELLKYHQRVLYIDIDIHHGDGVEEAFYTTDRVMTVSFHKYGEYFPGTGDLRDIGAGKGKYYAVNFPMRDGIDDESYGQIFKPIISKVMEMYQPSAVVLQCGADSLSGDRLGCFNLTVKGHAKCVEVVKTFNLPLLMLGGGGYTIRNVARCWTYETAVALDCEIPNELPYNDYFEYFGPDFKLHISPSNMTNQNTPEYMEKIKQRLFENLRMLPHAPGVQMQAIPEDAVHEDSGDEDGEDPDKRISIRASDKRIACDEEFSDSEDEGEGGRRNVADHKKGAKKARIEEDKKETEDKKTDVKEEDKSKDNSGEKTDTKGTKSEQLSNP
Chain of HDAC3 (O15379 whole entry): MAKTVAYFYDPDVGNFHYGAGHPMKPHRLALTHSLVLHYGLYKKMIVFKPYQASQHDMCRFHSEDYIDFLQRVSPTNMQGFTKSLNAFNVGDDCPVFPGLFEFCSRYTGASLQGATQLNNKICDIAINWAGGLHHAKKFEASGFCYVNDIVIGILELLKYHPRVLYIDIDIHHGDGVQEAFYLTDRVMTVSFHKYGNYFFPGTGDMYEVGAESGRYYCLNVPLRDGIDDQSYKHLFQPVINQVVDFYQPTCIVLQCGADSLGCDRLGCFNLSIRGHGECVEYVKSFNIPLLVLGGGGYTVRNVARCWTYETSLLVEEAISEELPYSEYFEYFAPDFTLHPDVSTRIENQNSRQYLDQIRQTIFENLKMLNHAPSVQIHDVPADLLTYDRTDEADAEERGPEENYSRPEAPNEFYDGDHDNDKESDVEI
Chain of HDAC3 (Q9Y618 395-489 partner limits assumed): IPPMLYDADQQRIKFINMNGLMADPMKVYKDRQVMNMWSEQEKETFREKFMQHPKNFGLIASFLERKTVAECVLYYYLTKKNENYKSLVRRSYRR

SMILES: COc1ccc(N(C)c2nc(C)nc3ccccc23)cc1OCCCC(=O)NO [III-2, N-hydroxy-4-(2-methoxy-5-(methyl(2-methyl-4-quinazolinyl)amino)phenoxy) butanamide]
- IC50 [1]: 15 ± 4 nM
- IC50 ([2]; NCI-H460, Lung cancer, Table 5, read-out: Half-Inhibitory Concentration IC50 H460): 55 ± 13 nM
- IC50 ([2]; NCI-H460, incubated for 96 hours, read-out: Half-Inhibitory Concentration IC50 Human lung cancer cell H460): 10 to 100 nM
- IC50 (Leukemia K562): 63 ± 18 nM
- IC50 (Multiple myeloma U266): 14 ± 6 nM
- tumor inhibitory rate (Ramos cells; [4]): no effects on inhibiting tumor growth
- tumor inhibitory rate (Ramos cells; [5]): no effects on inhibiting tumor growth
- tumor inhibitory rate (Ramos cells; [6]): 22.54%
- toxicity (death of mice during the experiment) (Ramos cells; 80 mg/kg intragastrically once every other day, a mouse died): may exhibit toxicity to a few individuals
- tumor inhibitory rate (Ramos cells; [7]): 58.79%
- IC50 (HDAC10): 1180 ± 168 nM
- IC50 (Lung cancer A549): 104 ± 29 nM
- tumor inhibitory rate (HBL-1 cells; [4]): 31.70%
- tumor inhibitory rate (HBL-1 cells; [5]): 25.23%
- tumor inhibitory rate (HBL-1 cells; [6]): 58.22%
- tumor inhibitory rate (HBL-1 cells; [7]): 56.88%
- IC50 (HDAC3): 439 ± 9 nM
- IC50 (Colon cancer HT29): 72 ± 37 nM
- IC50 (Breast cancer SKBR3): 22 ± 8 nM
- IC50 (HDAC2): 386 ± 7 nM
- IC50 (HDAC8; IC50 HDAC8, Table 2): > 1000 nM
- IC50 (HDAC8; read-out: IC50 HDAC8, Table 4, Class I): 3400 ± 487 nM
- acetylation of H3 (Ac-H3) [3]: deacetylation of Ac-H3 by the compound III-2 was also demonstrated
- acetylation of α-tubulin [3]: up-regulate the acetylated α-tubulin protease in a dose-dependent manner
- activity compared with positive control SAHA (MV4-11 cells): superior to that of the positive control group SAHA
- tumor growth (MV4-11 cells; compared with blank control, P<0.01): significantly inhibited tumor growth
